According to PMC10226046, “Prodrug Strategies for the Development of β-L-5-((E)-2-Bromovinyl)-1-((2S,4S)-2-(hydroxymethyl)-1,3-(dioxolane-4-yl))uracil (L-BHDU) against Varicella Zoster Virus (VZV)” (Journal of Medicinal Chemistry, 2023):
Where two headings read alike, the source gives them in different places.

Columns and labels:
VZV-ORF57-Luc [1] = conditions: for EC50: cell-free VZV-ORF57-Luc, ARPE-19 cells, 72 hpi, bioluminescence imaging
in vitro = conditions: human
VZV-ORF57-Luc [2] = assay: microbe, parasite or virus in culture; conditions: Human alphaherpesvirus 3, ARPE-19, cell-free VZV-ORF57-Luc, ARPE-19 cells, 72 hpi, bioluminescence imaging
[3] = Neutral red dye uptake cytotoxicity assay in ARPE-19 cells; conditions: human
VZV = conditions: cited from earlier work
VZV-ORF57-Luc [4] = assay: microbe, parasite or virus in culture; type: cell-based, Varicella zoster virus
VZV-ORF57-ΔTK = assay: microbe, parasite or virus in culture; type: cell-based, Varicella zoster virus
VZV-ORF57-ΔTS = assay: microbe, parasite or virus in culture; type: cell-based, Varicella zoster virus
VZV-ORF57-ΔTKTS = assay: microbe, parasite or virus in culture; type: cell-based, Varicella zoster virus
ARPE-19 cells = assay: Neutral red dye uptake cytotoxicity assay in ARPE-19 cells; conditions: 72 h, neutral red assay
[5] = selectivity index = CC50/EC50, ARPE-19 cells
[6] = Human alphaherpesvirus 3, ARPE-19
[7] = cell-associated virus, ARPE-19 cells
[8] = cell-associated VZV-ORF57-Luc, ARPE-19 cells, read-out: EC50
[9] = cell-associated VZV-ORF57-ΔTK, ARPE-19 cells, read-out: EC50
[10] = cell-associated VZV-ORF57-ΔTS, ARPE-19 cells, read-out: EC50
[11] = cell-associated VZV-ORF57-ΔTKTS, ARPE-19 cells, read-out: EC50

| Molecule | SI (CC50/EC50) (VZV-ORF57-Luc [1]) | EC50 (VZV-ORF57-Luc [2]) [nM] | SI (CC50/EC50) (VZV-ORF57-Luc [1]; [5]) | CC50 at 72 h [3] [µM] | further results |
| --- | --- | --- | --- | --- | --- |
| CC(C)OC(=O)C(C)NP(=O)(OC[C@H]1OC[C@@H](n2cc(/C=C/Br)c(=O)[nH]c2=O)O1)Oc1ccccc1 (stereo in doubt) [Isopropyl ((((2S,4S)-4-(5-((E)-2-Bromovinyl)-2,4-dioxo-3,4-dihydropyrimidin-1(2H)-yl)-1,3-dioxolan-2-yl)methoxy)(phenoxy)phosphoryl)-L-alaninate] | >206 | 1690 | – | – | CC50 (in vitro): > 100 µM |
| CC(C)OC(=O)C(Cc1ccccc1)NP(=O)(OC[C@H]1OC[C@@H](n2cc(/C=C/Br)c(=O)[nH]c2=O)O1)Oc1ccccc1 (stereo in doubt) [Isopropyl ((((2S,4S)-4-(5-((E)-2-Bromovinyl)-2,4-dioxo-3,4-dihydropyrimidin-1(2H)-yl)-1,3-dioxolan-2-yl)methoxy)(phenoxy)phosphoryl)-L-phenylalaninate] | 61 | 1530 | 61 | – | CC50 at 72 h (in vitro): 93.7 µM |
| CC(C)(N)C(=O)OC[C@H]1OC[C@@H](n2cc(/C=C/Br)c(=O)[nH]c2=O)O1.Cl [L-BHDU-2-aminoisobutyric acid (24), L-BHDU-5′-O-2-aminoisobutyric Acid Ester Hydrochloride] | >2597 | 38.5 | >2597 | > 100 | – |
| CC(C)[C@H](N)C(=O)OC[C@H]1OC[C@@H](n2cc(/C=C/Br)c(=O)[nH]c2=O)O1.Cl [L-BHDU-D-valine (18), L-BHDU-5′-O-D-valyl Ester Hydrochloride] | >709 | 140 | >709 | > 100 | EC50 (VZV-ORF57-Luc [1]): 141 nM |
| C[C@@H](N)C(=O)OC[C@H]1OC[C@@H](n2cc(/C=C/Br)c(=O)[nH]c2=O)O1.Cl [L-BHDU-L-alanine (15), L-BHDU-5′-O-L-alanyl Ester Hydrochloride] | >2959 | 33.8 | >2959 | > 100 | – |
| Cl.NC(=O)CC[C@H](N)C(=O)OC[C@H]1OC[C@@H](n2cc(/C=C/Br)c(=O)[nH]c2=O)O1 [L-BHDU-L-glutamine (23), L-BHDU-5′-O-L-glutamine Ester Hydrochloride] | >794 | 126 | >794 | > 100 | – |
| CC[C@H](C)[C@H](N)C(=O)OC[C@H]1OC[C@@H](n2cc(/C=C/Br)c(=O)[nH]c2=O)O1.Cl [L-BHDU-L-isoleucine (21), L-BHDU-5′-O-L-isoleucine Ester Hydrochloride] | >1520 | 65.8 | >1520 | > 100 | – |
| CC(C)C[C@H](N)C(=O)OC[C@H]1OC[C@@H](n2cc(/C=C/Br)c(=O)[nH]c2=O)O1.Cl [L-BHDU-L-leucine (20), L-BHDU-5′-O-L-leucine Ester Hydrochloride] | >2415 | 41.4 | >2415 | > 100 | – |
| Cl.NCCCC[C@H](N)C(=O)OC[C@H]1OC[C@@H](n2cc(/C=C/Br)c(=O)[nH]c2=O)O1 [L-BHDU-L-lysine (25), L-BHDU-5′-O-L-lysine Ester Hydrochloride] | – | 40.3 | >2481 | > 100 | – |
| Cl.N[C@H](Cc1ccccc1)C(=O)OC[C@H]1OC[C@@H](n2cc(/C=C/Br)c(=O)[nH]c2=O)O1 [L-BHDU-L-phenylalanine (16), L-BHDU-5′-O-L-phenylalanyl Ester Hydrochloride] | >3484 | 28 | >3484 | > 100 | EC50 (VZV-ORF57-Luc [1]): 28.7 nM; SI (CC50/EC50) (VZV-ORF57-Luc [1]; selectivity index = CC50/EC50, ARPE-19 cells, listed as 16): > 3484 |
| Cl.O=C(OC[C@H]1OC[C@@H](n2cc(/C=C/Br)c(=O)[nH]c2=O)O1)[C@@H]1CCCN1 [L-BHDU-L-proline (22), L-BHDU-5′-O-L-proline Ester Hydrochloride] | >1934 | 51.7 | >1934 | > 100 | – |
| Cl.N[C@@H](Cc1c[nH]c2ccccc12)C(=O)OC[C@H]1OC[C@@H](n2cc(/C=C/Br)c(=O)[nH]c2=O)O1 [L-BHDU-L-tryptophan (19), L-BHDU-5′-O-L-tryptophan Ester Hydrochloride] | >1550 | 64.5 | >1550 | > 100 | – |
| Cl.N[C@@H](Cc1ccc(O)cc1)C(=O)OC[C@H]1OC[C@@H](n2cc(/C=C/Br)c(=O)[nH]c2=O)O1 [L-BHDU-L-tyrosine (26), L-BHDU-5′-O-L-tyrosine Ester Hydrochloride] | >826 | 121 | >826 | > 100 | – |
| Cl.NCC(=O)OC[C@H]1OC[C@@H](n2cc(/C=C/Br)c(=O)[nH]c2=O)O1 [L-BHDU-glycine (14), L-BHDU-5′-O-glycyl Ester Hydrochloride] | >2132 | 46.9 | >2132 | > 100 | – |
| CC(C)[C@H](N)C(=O)OCCOCn1cnc2c(=O)[nH]c(N)nc21 [VACV, valacyclovir] | – | – | – | – | effect on VZV spread (VZV; 120 mg/kg/day, SCID-hu mouse): no effect; effect on VZV replication (VZV; SCID-hu mice): did not affect VZV replication |
| Nc1nc2c(ncn2COCCO)c(=O)[nH]1 [acyclovir (ACV), acyclovir, reference compound] | – | – | – | > 100 | – |
| Nc1ccn(C[C@@H](CO)OCP(=O)(O)O)c(=O)n1 [cidofovir (CDV), cidofovir, reference compound] | – | 482 | >208 | > 100 | EC50 (VZV-ORF57-Luc [4]; [6]): 370 nM; EC50 (VZV-ORF57-ΔTK; [6]): 420 nM; activity against VZV-ORF57-ΔTK (in words) (VZV-ORF57-ΔTK; [7]): effective; EC50 (VZV-ORF57-ΔTS; [6]): 10 nM; EC50 (VZV-ORF57-ΔTKTS; [6]): 1050 nM; activity against VZV-ORF57-ΔTKTS (in words) (VZV-ORF57-ΔTKTS; [7]): effective |
| CC(C)(C)OC(=O)N[C@@H](Cc1ccc(O)cc1)C(=O)O [compound 27] | >2481 | – | – | – | – |
| Bis(POC) Prodrug of L-BHDU-MP [POC-L-BHDU-MP (47)] | >2915 | – | >2915 | – | EC50 (VZV-ORF57-Luc [4]; [8]): 40 nM; EC50 (VZV-ORF57-ΔTK; [9]): > 2000 nM; EC50 (VZV-ORF57-ΔTS; [10]): 8.4 nM; EC50 (VZV-ORF57-ΔTKTS; [11]): > 2000 nM; EC50 (VZV-ORF57-Luc [1]): 34.3 nM; EC50 (VZV-ORF57-Luc [1]; listed as POC-L-BHDU-MP): 34 nM; SI (CC50/EC50) (VZV-ORF57-Luc [1]; selectivity index = CC50/EC50, ARPE-19 cells, listed as POC-L-BHDU-MP): > 2915; CC50 (ARPE-19 cells): > 100 µM |
| L-BHDU-5′-[(2-hexadecyloxyethyl)phosphate] [HDP-L-BHDU-MP (39)] | 35 | – | 35 | – | EC50 (VZV-ORF57-Luc [1]): 526 nM; EC50 (VZV-ORF57-Luc [1]; listed as 39): 530 nM; CC50 (ARPE-19 cells): 18.5 µM |
| L-BHDU-5′-[(2-octadecyloxyethyl)phosphate] [ODE-L-BHDU-MP (38)] | 339 | – | 339 | – | fold more potent compared to ACV (VZV-ORF57-Luc [4]; cell-associated VZV-ORF57-Luc): 9 fold; EC50 (VZV-ORF57-Luc [4]; [8]): 820 nM; EC50 (VZV-ORF57-ΔTK; [9]): > 2000 nM; EC50 (VZV-ORF57-ΔTS; [10]): 0.8 nM; EC50 (VZV-ORF57-ΔTKTS; [11]): > 2000 nM; EC50 (VZV-ORF57-Luc [1]): 100 nM; CC50 (ARPE-19 cells): 33.9 µM |
